Reference: publication PMC8286840, “Identifying SARS-CoV-2 antiviral compounds by screening for small molecule inhibitors of Nsp3 papain-like protease” (Biochemical Journal, 2021)
Counter-ions that a name gives are not always drawn. Like-named read-outs stand apart in the source and are kept apart here.

Legend:
[1] = biological target: T1, SARS-CoV-2 PLpro (nsp3 1564–1878) (Severe acute respiratory syndrome coronavirus 2, UniProt P0DTD1); experiment: biochemical; set-up: FRET-quenched peptide (Pro3) cleavage by PLpro, 10 min pre-incubation, slope over 20 min, normalised to no-compound control; conditions: low concentration screen, read-out: % of control remaining
[2] = biological target: T1, SARS-CoV-2 PLpro (nsp3 1564–1878); experiment: biochemical; set-up: FRET-quenched peptide (Pro3) cleavage by PLpro, 10 min pre-incubation, slope over 20 min, normalised to no-compound control; conditions: high concentration screen, read-out: % of control remaining

`O=C[C@H](Cl)[C@@H](O)[C@H](O)[C@H](O)CO` [2-Chloro-2-deoxy-D-glucose] showed a remaining activity at 1.25 µM ([1]; Well no.=441) of 103% and a remaining activity at 3.75 µM ([2]; Well no.=441) of 104%.

`OC[C@H]1O[C@@H](n2cnc3c(NC4CCCC4)nc(Cl)nc32)[C@H](O)[C@@H]1O` [2-Chloro-N6-cyclopentyladenosine] gave a remaining activity at 1.25 µM ([1]; Well no.=439) of 98.2% and a remaining activity at 3.75 µM ([2]; Well no.=439) of 102%.

Molecule `Nc1nc(Cl)nc2c1ncn2[C@@H]1O[C@H](COP(=O)(O)OP(=O)(O)OP(=O)(O)O)[C@H](O)C1O` (stereo partly drawn) [2-Chloroadenosine triphosphate tetrasodium] has a remaining activity at 1.25 µM ([1]; Well no.=535) of 100% and a remaining activity at 3.75 µM ([2]; Well no.=535) of 102%.

Work on `Nc1nc(Cl)nc2c1ncn2[C@@H]1O[C@H](CO)[C@@H](O)[C@H]1O` [2-Chloroadenosine] yielded a remaining activity at 1.25 µM ([1]; Well no.=274) of 99.4% and a remaining activity at 3.75 µM ([2]; Well no.=274) of 101%.

For `CNC(=O)[C@H]1O[C@@H](n2cnc3c(NCc4cccc(I)c4)nc(Cl)nc32)[C@H](O)[C@@H]1O` [2-Cl-IB-MECA], the remaining activity at 1.25 µM ([1]; Well no.=6316) was 95% and the remaining activity at 3.75 µM ([2]; Well no.=6316) was 90.2%.

With `NCC(O)C1CCCCCCC1` (stereo not drawn) [2-Cyclooctyl-2-hydroxyethylamine hydrochloride] the remaining activity at 1.25 µM ([1]; Well no.=485) was 106% and the remaining activity at 3.75 µM ([2]; Well no.=485) was 105%.

`O=CC[C@@H](O)[C@H](O)[C@H](O)CO` [2-Deoxy-D-glucose] was tested, and the remaining activity at 1.25 µM ([1]; Well no.=8302) was 100% and the remaining activity at 3.75 µM ([2]; Well no.=8302) was 101%.

For `CCCCCCCCCCCCCCC(F)C(=O)O` (stereo not drawn) [2-Fluoropalmitic acid], the remaining activity at 1.25 µM ([1]; Well no.=4355) was 99.2% and the remaining activity at 3.75 µM ([2]; Well no.=4355) was 97%.

With `NC(N)=NCC(=O)O` [2-Guanidinoacetic acid] the remaining activity at 1.25 µM ([1]; Well no.=6437) was 103% and the remaining activity at 3.75 µM ([2]; Well no.=6437) was 105%.

In the case of `CCC(C)(O)C(=O)O` (stereo not drawn) [2-Hydroxy-2-methylbutanoic acid], the remaining activity at 1.25 µM ([1]; Well no.=6357) is reported as 96.5% and the remaining activity at 3.75 µM ([2]; Well no.=6357) is reported as 93.4%.

For `CC(C)C(O)C(=O)O` (stereo not drawn) [2-Hydroxy-3-methylbutanoic acid], the remaining activity at 1.25 µM ([1]; Well no.=7503) was 101% and the remaining activity at 3.75 µM ([2]; Well no.=7503) was 98.9%.

Molecule `CCCCCCCCCCCCC(O)C(=O)O` (stereo not drawn) [2-Hydroxymyristic acid] has a remaining activity at 1.25 µM ([1]; Well no.=4353) of 103% and a remaining activity at 3.75 µM ([2]; Well no.=4353) of 102%.

For `O=C(O)Cc1ccccc1O` [2-Hydroxyphenylacetic acid], the remaining activity at 1.25 µM ([1]; Well no.=6307) was 104% and the remaining activity at 3.75 µM ([2]; Well no.=6307) was 107%.

In the case of `NCC(O)(CS(=O)(=O)O)c1ccc(Cl)cc1` (stereo not drawn) [2-Hydroxysaclofen], the remaining activity at 1.25 µM ([1]; Well no.=355) is reported as 97.9% and the remaining activity at 3.75 µM ([2]; Well no.=355) is reported as 95.6%.

For `COc1ccc2[nH]c(I)c(CCNC(C)=O)c2c1` [2-Iodomelatonin], the remaining activity at 1.25 µM ([1]; Well no.=622) was 99.9% and the remaining activity at 3.75 µM ([2]; Well no.=622) was 99.7%.

Work on `O=C(O)CCC(=O)C(=O)O` [2-Ketoglutaric acid] yielded a remaining activity at 1.25 µM ([1]; Well no.=7061) of 103% and a remaining activity at 3.75 µM ([2]; Well no.=7061) of 98.4%.

For `COc1ccccc1C(=O)O` [2-Methoxybenzoic acid], the remaining activity at 1.25 µM ([1]; Well no.=6583) was 103% and the remaining activity at 3.75 µM ([2]; Well no.=6583) was 101%.

Molecule `COc1cc2c(cc1O)CC[C@@H]1[C@@H]2CC[C@]2(C)[C@@H](O)CC[C@@H]12` [2-Methoxyestradiol] has a remaining activity at 1.25 µM ([1]; Well no.=836) of 105%, a remaining activity at 1.25 µM ([1]; Well no.=6292) of 95.9% and a remaining activity at 3.75 µM ([2]; Well no.=836) of 102%. The remaining activity at 3.75 µM ([2]; Well no.=6292) was 93.3%.

With `Cc1[nH]c2ccc(O)cc2c1CCN` [2-Methyl-5-hydroxytryptamine maleate] the remaining activity at 1.25 µM ([1]; Well no.=847) was 102% and the remaining activity at 3.75 µM ([2]; Well no.=847) was 102%.

In the case of `CC(CCC(=O)O)C(=O)O` (stereo not drawn) [2-Methylpentanedioic acid], the remaining activity at 1.25 µM ([1]; Well no.=6733) is reported as 99.7% and the remaining activity at 3.75 µM ([2]; Well no.=6733) is reported as 105%.

Work on `CC(CC(=O)O)C(=O)O` (stereo not drawn) [2-Methylsuccinic acid] yielded a remaining activity at 1.25 µM ([1]; Well no.=6635) of 100% and a remaining activity at 3.75 µM ([2]; Well no.=6635) of 98.3%.

Work on `Oc1ccc2ccccc2c1` [2-Naphthol] yielded a remaining activity at 1.25 µM ([1]; Well no.=7155) of 103% and a remaining activity at 3.75 µM ([2]; Well no.=7155) of 99.5%.

`O=C(O)C(=O)Cc1ccccc1` [2-Oxo-3-phenylpropanoic acid] showed a remaining activity at 1.25 µM ([1]; Well no.=6877) of 109% and a remaining activity at 3.75 µM ([2]; Well no.=6877) of 103%.

With `CCC(=O)C(=O)O` [2-Oxobutanoic acid] the remaining activity at 1.25 µM ([1]; Well no.=6293) was 106% and the remaining activity at 3.75 µM ([2]; Well no.=6293) was 105%.

Work on `Nc1nc(Nc2ccccc2)nc2c1ncn2[C@@H]1O[C@H](CO)[C@@H](O)[C@H]1O` [2-Phenylaminoadenosine] yielded a remaining activity at 1.25 µM ([1]; Well no.=1213) of 102% and a remaining activity at 3.75 µM ([2]; Well no.=1213) of 106%.

With `CC(C(=O)O)c1ccccc1` (stereo not drawn) [2-Phenylpropionic acid] the remaining activity at 1.25 µM ([1]; Well no.=6837) was 94.4% and the remaining activity at 3.75 µM ([2]; Well no.=6837) was 95.3%.

`O=c1cc[nH]c(=S)[nH]1` [2-Thiouracil] gave a remaining activity at 1.25 µM ([1]; Well no.=5325) of 90.5% and a remaining activity at 3.75 µM ([2]; Well no.=5325) of 90.8%.

Molecule `CN(C)c1ccccc1CN1CCCN(Cc2ccccc2N(C)C)C1c1ccncc1` [2-[(3-[2-(dimethylamino)benzyl]-2-(4-pyridinyl)tetrahydro-1(2H)-pyrimidinyl)methyl]-N,N-dimethylaniline] has a remaining activity at 1.25 µM ([1]; Well no.=5454) of 96.1% and a remaining activity at 3.75 µM ([2]; Well no.=5454) of 100%.

Work on `Cc1nc(C(=O)N2CCC[C@H]2Cc2nnc(-c3ccccc3)o2)c(-c2ccccc2F)s1` [2-[((2S)-1-{[5-(2-fluorophenyl)-2-methyl-1,3-thiazol-4-yl]carbonyl}-2-pyrrolidinyl)methyl]-5-phenyl-1,3,4-oxadiazole] yielded a remaining activity at 1.25 µM ([1]; Well no.=5406) of 90.5% and a remaining activity at 3.75 µM ([2]; Well no.=5406) of 102%.

For `CCCCCCCCc1ccc(CCC(N)(CO)CO)cc1` [2-amino-2-[2-(4-octylphenyl)ethyl]-1,3-propanediol hydrochloride], the remaining activity at 1.25 µM ([1]; Well no.=6045) was 93.4% and the remaining activity at 3.75 µM ([2]; Well no.=6045) was 95.1%.

Molecule `COc1cc(Br)c(S(=O)(=O)Nc2ccc(Cl)c(O[C@@H]3CCN(C)C3)c2)cc1OC` [2-bromo-N-(4-chloro-3-{[(3R)-1-methyl-3-pyrrolidinyl]oxy}phenyl)-4,5-dimethoxybenzenesulfonamide] has a remaining activity at 1.25 µM ([1]; Well no.=5501) of 99.8% and a remaining activity at 3.75 µM ([2]; Well no.=5501) of 105%.

Molecule `CCCCCCCCCCCCCCC(Br)C(=O)O` (stereo not drawn) [2-bromohexadecanoic acid] has a remaining activity at 1.25 µM ([1]; Well no.=5893) of 106% and a remaining activity at 3.75 µM ([2]; Well no.=5893) of 106%.

`CCCCC1=NC2(CCCC2)C(=O)N1Cc1ccc(-c2ccccc2-c2nnn[nH]2)cc1` [2-butyl-3-{[2'-(1H-tetraazol-5-yl)[1,1'-biphenyl]-4-yl]methyl}-1,3-diazaspiro[4.4]non-1-en-4-one] showed a remaining activity at 1.25 µM ([1]; Well no.=5468) of 98% and a remaining activity at 3.75 µM ([2]; Well no.=5468) of 104%.

For `O=C(O)c1ccc(-c2c[nH]c3ncc(-c4ccccc4)cc23)cc1C1CCCC1` [2-cyclopentyl-4-(5-phenyl-1H-pyrrolo[2,3-b]pyridin-3-yl)benzoic acid], the remaining activity at 1.25 µM ([1]; Well no.=5864) was 93% and the remaining activity at 3.75 µM ([2]; Well no.=5864) was 94.4%.

With `C[N+](C)(C)CCO` [2-hydroxy-N,N,N-trimethylethanaminium chloride] the remaining activity at 1.25 µM ([1]; Well no.=5483) was 98.3% and the remaining activity at 3.75 µM ([2]; Well no.=5483) was 97.8%.
